Results reported in patent US6642180B1, “Biphenyl-substituted cyclic ketoenols as pesticides” (Bayer Aktiengesellschaft, priority 1999, dated 2003).

Assays:
Type in all cases: in vivo
[1] = tested on: larvae of the mustard beetle (Phaedon cochleariae); assay: Phaedon-larvae test; details: cabbage leaves dipped
Experimental: Phaedon-larvae Test Solvent: 7 parts by weight of dimethylformamide Emulsifier: 1 part by weight of alkylaryl polyglycol ether To produce a suitable preparation of active compound, 1 part by weight of active compound is mixed with a stated amount of solvent and emulsifier, and the concentrate is diluted with emulsifier-containing water to the desired concentration. Cabbage leaves (Brassica oleracea) are treated by being dipped into the preparation of active compound of the desired concentration and are populated with larvae of the mustard beetle (Phaedon cochleariae) while the leaves are still moist.

[2] = tested on: Meloidogyne incognita; assay: Meloidogyne test; details: sand, Meloidogyne incognita egg/larvae suspension, lettuce
Experimental: Solvent: 7 parts by weight of dimethylformamide
(§1) Emulsifier: 1 parts by weight of alkylaryl polyglycol ether
To produce a suitable preparation of active compound, 1 part by weight of active compound is mixed with the stated amounts of solvent and emulsifier, and the concentrate is diluted with water to the desired concentration.
Containers are filled with sand, solution of active compound, Meloidogyne incognita-egg/larvae suspension and lettuce seeds. The lettuce seeds germinate and the plants develop. On the roots, galls are formed.
After the desired period of time, the nematicidal action is determined in % by the gall formation. 100% means that no galls were found; 0% means that the number of galls on the treated plants corresponds to that of the untreated control.

[3] = tested on: Abutilon; assay: Pre-emergence test (greenhouse); details: 250 g ai./ha, after 3 weeks
Experimental: (§2) Solvent: 5 parts by weight of acetone
(§3) Emulsifier: 1 part by weight of alkylaryl polyglycol ether
(§4) To produce a suitable preparation of active compound, 1 part by weight of active compound is mixed with the stated amount of solvent, with the stated amounts of emulsifiers added and the concentrate is diluted with water to the desired concentration.
(§5) Seeds of the test plants are sown in normal soil. After about 24 hours, the soil is sprayed with the preparation of active compound such that the particular amounts of active compound desired are applied per unit area. The concentration of the spray liquor is chosen such that the particular amounts of active compound desired are applied in 1000 l of water/ha.
(§6) After 3 weeks, the degree of damage to the plants is rated in % damage in comparison to the development of the untreated control.
(§7) 0%=no effect (like untreated control)

[4] = tested on: Alopecurus; assay: Pre-emergence test (greenhouse); details: 250 g ai./ha, after 3 weeks
Experimental: as §2, §3, §4, §5, §6, §7

[5] = tested on: Avena fatua; assay: Pre-emergence test (greenhouse); details: 250 g ai./ha, after 3 weeks
Experimental: as §2, §3, §4, §5, §6, §7

[6] = tested on: Echinochloa; assay: Pre-emergence test (greenhouse); details: 250 g ai./ha, after 3 weeks
Experimental: as §2, §3, §4, §5, §6, §7

[7] = tested on: Setaria; assay: Pre-emergence test (greenhouse); details: 250 g ai./ha, after 3 weeks
Experimental: as §2, §3, §4, §5, §6, §7

[8] = tested on: Alopecurus; assay: Post-emergence test (greenhouse); details: 250 g ai./ha, after three weeks
Experimental: as §2, §1
(§8) To produce a suitable preparation of active compound, 1 part by weight of active compound is mixed with the stated amount of solvent, the stated amount of emulsifier is added and the concentrate is diluted with water to the desired concentration.
as §5, with “Test plants” for “Seeds”, “a height of 5-15 cm” for “the test plants”, “are” for “are sown in normal soil. After about 24 hours, the soil is”
(§9) After three weeks, the degree of damage to the plants is rated in % damage in comparison to the development of the untreated control.
(§10) 0% no effect (like untreated control)
(§11) Post-emergence/greenhouse

[9] = tested on: Echinochloa; assay: Post-emergence test (greenhouse); details: 250 g ai./ha, after three weeks
Experimental: as §2, §1, §8
as §5, with “Test plants” for “Seeds”, “a height of 5-15 cm” for “the test plants”, “are” for “are sown in normal soil. After about 24 hours, the soil is”
as §9, §10, §11

[10] = tested on: Setaria; assay: Post-emergence test (greenhouse); details: 250 g ai./ha, after three weeks
Experimental: as §2, §1, §8
as §5, with “Test plants” for “Seeds”, “a height of 5-15 cm” for “the test plants”, “are” for “are sown in normal soil. After about 24 hours, the soil is”
as §9, §10, §11

[11] = tested on: Sugar beet; assay: Post-emergence test (greenhouse); details: 250 g ai./ha, after three weeks
Experimental: as §2, §1, §8
as §5, with “Test plants” for “Seeds”, “a height of 5-15 cm” for “the test plants”, “are” for “are sown in normal soil. After about 24 hours, the soil is”
as §9, §10, §11

Compound: COC(=O)N(C)COC1=C(c2c(C)cc(-c3ccc(Cl)cc3)cc2C)C(=O)CC(C)(C)C1 [Example I-8-1]
- activity (kill of beetle larvae) [1]: good activity
- activity (nematicidal action by gall formation) [2]: good activity
- degree of damage to the plants, Abutilon [3]: 80%
- degree of damage to the plants, Alopecurus [4]: 90%
- degree of damage to the plants, Avena fatua [5]: 90%
- degree of damage to the plants, Echinochloa [6]: 100%
- degree of damage to the plants, Setaria [7]: 100%
- degree of damage to the plants, Alopecurus [8]: 80%
- degree of damage to the plants, Echinochloa [9]: 100%
- degree of damage to the plants, Setaria [10]: 100%
- degree of damage to the plants, Sugar beet [11]: 0%
